Results reported in patent US12084521B2, “TLR9 inhibitors to suppress inflammatory response to pathogens” (University Of Maryland, Baltimore, priority 2018, dated 2024).

How the values were obtained:
[1] = system: TLR9 signaling; assay: Plasma cytokines after i.p. ODN 1668 in mice; type: in vivo, C57BL/6J mice
Experimental: (§1) Systemic cytokine levels were measured in plasma samples obtained 1, 3, and 5 hours after intraperitoneal (i.p.) administration of 7.86 nmol (50 μg) of ODN 1668 or 67 nmol of Pam3C per mouse, using ELISA kits from Biolegend™ Inc. CPDP were dissolved in PBS and administered i.p. at the dose of 200 nmol per mouse 1 hour before administration of a TLR agonist. For survival experiments, mice were sensitized to TLR9 agonists by i.p. injection of 20 mg of D-Gal 30 minutes before administration of peptides or PBS. ODN 1668 was used at the doses of 3.93 or 7.86 nmol/mouse (25 or 50 μg/mouse) 1.5 hours after D-Gal. Animal survival was monitored for 50 hours. All agents were administered i.p. in 500 μL volume of PBS. Animals had free access to food and water during the observation period. All animal experiments were conducted in accordance with the national guidelines for the care and use of laboratory animals under a protocol that was approved by the UMB IACUC.
To test the in vivo efficacy and specificity of 9R34-ΔN, C57BL/6J mice were mock-treated or treated i.p. with a single dose of inhibitory or control peptide (200 nmol/mouse) and challenged with TLR9 agonist ODN 1668 (7.86 nmol/mouse) or TLR2/1 agonist Pam3C (67 nmol/mouse) 1 hour later. Plasma concentrations of TNFα and IL-12-p40 were measured 1, 3, and 5 hours after the challenge. Both TLR agonists increased concentrations of TNFα and IL-12-p40 in 1 hour samples from below the limit of detection to about 1.2 and about 6 ng/mL in the case of ODN 1668, and to 0.12 ng/mL and 1 ng/mL after treatment with Pam3C.
Plasma TNFα and IL-12-p40 levels following intraperitioneal administration of ODN 1668 to C57Bl/6J mice in peptide-pretreated and control mice are shown in FIG. 14A and FIG. 14B. Data shown in these figures represent the means±SEM obtained in at least three independent experiments. The statistical significance of changes in cytokine concentrations was determined by a two-way ANOVA test; *p<0.001.

[2] = system: TLR2/1 signaling; assay: Plasma cytokines after i.p. Pam3C in mice; type: in vivo, C57BL/6J mice; settings: peptide 200 nmol/mouse i.p.; Pam3C 67 nmol/mouse
Experimental: as §1, with “Animals had free access to food and water during the observation period. All animal experiments were conducted in accordance with the national guidelines for the care and use of laboratory animals under a protocol that was approved by the UMB IACUC.” left out
To test the in vivo efficacy and specificity of 9R34-ΔN, C57BL/6J mice were mock-treated or treated i.p. with a single dose of inhibitory or control peptide (200 nmol/mouse) and challenged with TLR9 agonist ODN 1668 (7.86 nmol/mouse) or TLR2/1 agonist Pam3C (67 nmol/mouse) 1 hour later. Plasma concentrations of TNFα and IL-12-p40 were measured 1, 3, and 5 hours after the challenge. […]
Plasma TNFα and IL-12-p40 levels following intraperitioneal administration of ODN 1668 to C57Bl/6J mice in peptide-pretreated and control mice are shown in FIG. 14A and FIG. 14B. […] The statistical significance of changes in cytokine concentrations was determined by a two-way ANOVA test; *p<0.001.

[3] = system: TLR9-induced lethality; assay: Survival of D-Gal pretreated mice after ODN 1668; type: in vivo, C57Bl/6J mice
Experimental: as §1
With the exception for LPS, administration of a purified TLR agonist is not lethal to mice. Mice, however, can be sensitized to TLR agonists by pretreatment with D-galactosamine (D-Gal). Survival of C57Bl/6J mice pretreated with D-galactosamine and challenged with different doses of ODN 1668 was tested. Mice were first administered with D-Gal intraperitoneally at the dose of 20 mg/mouse. Thirty minutes later mice were mock-treated with PBS or treated with a CPDP at the dose 200 nmol/mouse. ODN 1668 was administered 1 hour after peptide treatment at the dose of 3.93 or 7.86 nmol/mouse.

[4] = Stability and solubility of peptide solutions
[5] = system: TLR9 signaling; assay: ODN 1668-induced cytokine secretion in BMDM supernatants (ELISA); type: cell-based, mouse; settings: 5 hour supernatants, ODN 1668 1 μM
Experimental: Mouse TNFα and IL-12-p40 concentrations were measured in supernatants using ELISA kits from Biolegend™, Inc.
BMDMs were incubated in the presence of a decoy peptide for 30 minutes prior to stimulation with ODN 1668 (1 μM). The statistical significance of changes in cytokine levels was determined by the one-way ANOVA test; *p<0.01.

[6] = system: myDDosome; settings: BMDM pretreated with CPDP; MyD88 IP, IRAK4 blot
Experimental: Four million BMDMs per well were plated in 6-well plates and treated with CPDP for 30 minutes prior to stimulation with ODN 1668 for 90 minutes. Cells were lysed in 600 p L of buffer containing 20 mM HEPES (pH 7.4), 150 mM NaCl, 10 mM NaF, 2 mM Na3VO4, 1 mM EDTA, 1 mM EGTA, 0.5% Triton X-100, 0.1 mM DTT, and protease inhibitor cocktail (Roche™). Cell extracts were incubated overnight with 1 μg of anti-mouse MyD88 antibody (AF3109) (R&D Systems™, followed by a 4-hour incubation with 20 μL protein G Sepharose beads (ThermoFisherm Scientific). The beads were then washed 3 times with 500 μL of lysis buffer and boiled in 60 μL of Laemmli sample buffer (Bio-Rad™). Cell extracts were electrophoresed on 10% acrylamide gel by SDS-PAGE and transferred to PVDF membrane (Bio-Rad™). Rabbit anti-MyD88 IgG was purchased from Cell Signaling™. Mouse anti-IRAK4 IgG was obtained from Abcam™. Alkaline phosphatase-conjugated secondary antibodies against mouse and rabbit IgG were purchased from Cell Signaling™. The stabilized substrate for alkaline phosphatase was from Promega™.
TLR stimulation causes formation of myDDosome, a signaling complex composed through interactions of IRAK and MyD88 death domains. To test if peptides inhibit myDDosome formation, MyD88 was immunoprecipitated from lysates of ODN-stimulated BMDM and the precipitates analyzed for IRAK4 presence. BMDM were lysed and lysates immunoprecipitated with anti-MyD88 Ab and immune complexes assessed with anti-IRAK4 Ab 3 hours after cell treatment with ODN 1668.

[7] = system: TLR1/2 signaling; assay: TNFα mRNA in BMDM stimulated with Pam3C; type: cell-based, mouse; settings: peptide 40 μM; P3C 0.33 μM; 1 h
Experimental: The cDNA obtained was amplified with gene-specific primers for mouse HPRT, TNFα, IL-10, IL-12-p40, or IL-6 and Fast SYBR Green™ master mix (Applied Biosystemsm) as previously described.
CPDPs 9R34 and 9R11 were examined for inhibition of TLR1/2, TLR4, and TLR7 signaling. BMDMs were stimulated with Pam3C, E. coli LPS, or R848 and TNFαmRNA was measured 1 hour after stimulation. Mouse BMDM were treated with 40 μM of the indicated peptides for 30 minutes prior to stimulation with ODN 1668 (1 μM), E. coli LPS (0.1 μg/mL), R848 (2.85 μM), or P3C (0.33 μM). R848 and P3C were used to specifically activate TLR7 and TLR2 signaling, respectively. TNFαmRNA expression was measured 1 h after ODN 1668 challenge and normalized to the expression of HPRT. See results in FIG. 8A, FIG. 8B, and FIG. 8C. […] The statistical significance of changes was determined by a one-way ANOVA test; *p<0.01.

[8] = higher ODN1668 dose 50 μg/mouse, peptide 200 nmol/mouse i.p.

Row | Sequence | decrease of plasma IL-12-p40 peak ([1]; 3-hour samples, peptide 200 nmol/mouse i.p., ODN 1668 7.86 nmol/mouse) | 1-hour plasma TNFα peak ([1]; peptide 200 nmol/mouse i.p. 1 hour before ODN 1668 7.86 nmol/mouse) | ODN 1668-induced plasma cytokine levels (TNFα, IL-12-p40) ([1]; peptide 200 nmol/mouse i.p., ODN 1668 7.86 nmol/mouse) | Pam3C-induced plasma cytokine levels (TNFα, IL-12-p40) [2] | protection against ODN-induced lethality (overall) ([3]; D-Gal pretreated mice) | protection of D-Gal pretreated mice (survival) ([3]; ODN 1668 lower dose 3.93 nmol/mouse, peptide 200 nmol/mouse i.p.) | mice rescued [3, 8] | protection of D-Gal pretreated mice (survival) [3, 8] | concentration up to which stock solutions were stable [4] | secretion of IL-12-p40 ([5]; peptide 20 μM) | production/secretion of TNFα ([5]; peptide 40 μM) | secretion of IL-12-p40 ([5]; peptide 40 μM) | ODN 1668-induced myDDosome formation [6] | signaling induced by TLR1/2 agonist (TNFα mRNA) [7]
1 | ALRLCLEERD [Peptide 9R34-ΔN] | approximately 25 fold | eliminated | selectively inhibited only the ODN 1668-induced cytokines | did not affect cytokine levels | protects mice from TLR9-induced lethality | full protection | more than 50% | less protective | up to 10 mM | – | – | – | – | –
2 | RSFWAQLGMALTRD (Synthetic peptide 9R11) | – | – | – | – | – | – | – | – | – | also effective | decreased the production of TNFα | reduced secretion | prevented ODN 1668-induced myDDosome formation | did not inhibit
